Laboratory results: US11547681B2, “N-acylethanolamide derivatives and uses thereof” (ELIEM THERAPEUTICS, INC., priority 2016, dated 2023)
Where two headings read alike, the source gives them in different places.

Test: Simulated intestinal fluid (SIF) stability in the presence of various enzymes
Type: in vitro ADME
Settings: for % Remaining of Initial: n = 1
Description: (§1) Studies were carried out in simulated intestinal fluid in the presence of various enzymes. Simulated intestinal fluid was prepared by dissolving 6.8 g of monobasic potassium phosphate in 1.0 L of water. Aliquots of this solution were taken and the pH was adjusted to 6.8. Individual enzymes were then spiked into aliquots for each experiment. A DMSO stock was first prepared for the test article. Aliquots of the DMSO solution were dosed into 700 μL of matrix, which had been pre-warmed to 37° C., at a final test article concentration of 1 μM. […] Samples were stored at 4° C. until the end of the experiment. After the final time point was sampled, the plate was mixed and then centrifuged at 3,000 rpm for 10 minutes. Calibration standards were prepared in matched matrix. […] Analytical conditions are outlined in Appendix 8-1.
as §1, with “10-1.” for “8-1.”
Studies were carried out in simulated intestinal fluid in the presence of various enzymes. Simulated intestinal fluid was prepared by dissolving 6.8 g of monobasic potassium phosphate in 1.0 L of water. Aliquots of this solution were taken and the pH was adjusted to 6.8. Individual enzymes were then spiked into aliquots for each experiment. A DMSO stock was first prepared for test article. Aliquots of the DMSO solution were dosed into 700 μL of matrix, which had been pre-warmed to 37° C., at a final test article concentration of 1 μM. […] Samples were stored at 4° C. until the end of experiment. After final time point was sampled, the plate was mixed and then centrifuged at 3,000 rpm for 10 minutes. Calibration standards were prepared in matched matrix. […] Analytical conditions are outlined in Appendix 13-1.
as §1, with “17-1.” for “8-1.”

[1] = SIF + Carboxypeptidase A, 0 min, 1 μM
[2] = SIF + Carboxypeptidase A, 15 min, 1 μM
[3] = SIF + Carboxypeptidase A, 30 min, 1 μM
[4] = SIF + Carboxypeptidase A, 60 min, 1 μM
[5] = SIF + Carboxypeptidase A, 120 min, 1 μM
[6] = SIF + Carboxypeptidase B, 0 min, 1 μM
[7] = SIF + Carboxypeptidase B, 15 min, 1 μM
[8] = SIF + Carboxypeptidase B, 30 min, 1 μM
[9] = SIF + Carboxypeptidase B, 60 min, 1 μM
[10] = SIF + Carboxypeptidase B, 120 min, 1 μM
[11] = SIF + Chymotrypsin, 0 min, 1 μM
[12] = SIF + Chymotrypsin, 15 min, 1 μM
[13] = SIF + Chymotrypsin, 30 min, 1 μM
[14] = SIF + Chymotrypsin, 60 min, 1 μM
[15] = SIF + Chymotrypsin, 120 min, 1 μM

CCCCCCCCCCCCCCCC(=O)NCCOC(=O)CCC(=O)OC(CO)CO [Compound I-8]
% Remaining of Initial [1]: 100%
% Remaining of Initial [2]: 33%
% Remaining of Initial [3]: 8.7%
% Remaining of Initial [4]: <1.0%
% Remaining of Initial [5]: <1.0%
% Remaining of Initial [6]: 100%
% Remaining of Initial [7]: 30%
% Remaining of Initial [8]: 7.1%
% Remaining of Initial [9]: <1.0%
% Remaining of Initial [10]: <1.0%
% Remaining of Initial [11]: 100%
% Remaining of Initial [12]: 36%
% Remaining of Initial [13]: 8.7%
% Remaining of Initial [14]: <1.0%
% Remaining of Initial [15]: <1.0%
% Remaining of Initial (SIF + Elastase, 0 min, 1 μM): 100%
% Remaining of Initial (SIF + Elastase, 15 min, 1 μM): 38%
% Remaining of Initial (SIF + Elastase, 30 min, 1 μM): 17%
% Remaining of Initial (SIF + Elastase, 60 min, 1 μM): 16%
% Remaining of Initial (SIF + Elastase, 120 min, 1 μM): 17%
% Remaining of Initial (SIF + Trypsin, 0 min, 1 μM): 100%
% Remaining of Initial (SIF + Trypsin, 15 min, 1 μM): 52%
% Remaining of Initial (SIF + Trypsin, 30 min, 1 μM): 31%
% Remaining of Initial (SIF + Trypsin, 60 min, 1 μM): 28%
% Remaining of Initial (SIF + Trypsin, 120 min, 1 μM): 25%
half-life at 1 μM (simulated intestinal fluid with carboxypeptidase A, pH 6.8, SIF + Carboxypeptidase A, read-out: Half-life): < 15 min
half-life at 1 µM (simulated intestinal fluid with carboxypeptidase A, pH 6.8, SIF + Carboxypeptidase A, read-out: Half-life, calculated value in parentheses): 9.2 min
half-life at 1 µM (simulated intestinal fluid with carboxypeptidase B, pH 6.8, SIF + Carboxypeptidase B, read-out: Half-life): < 15 min
half-life at 1 µM (simulated intestinal fluid with carboxypeptidase B, pH 6.8, SIF + Carboxypeptidase B, read-out: Half-life, calculated value in parentheses): 8.5 min
half-life at 1 μM (simulated intestinal fluid with chymotrypsin, pH 6.8, SIF + Chymotrypsin, read-out: Half-life): < 15 min
half-life at 1 μM (simulated intestinal fluid with chymotrypsin, pH 6.8, SIF + Chymotrypsin, read-out: Half-life, calculated value in parentheses): 9.6 min
half-life at 1 μM (simulated intestinal fluid with elastase, pH 6.8, SIF + Elastase, read-out: Half-life): < 15 min
half-life at 1 µM (simulated intestinal fluid with elastase, pH 6.8, SIF + Elastase, read-out: Half-life, calculated value in parentheses): 12 min
half-life at 1 μM (simulated intestinal fluid with trypsin, pH 6.8, SIF + Trypsin, read-out: Half-life): 25 min

CCCCCCCCCCCCCCCC(=O)NCCOC(=O)CCC(=O)OCC(O)CO (stereo not shown) [Compound I-9]
% Remaining of Initial (n = 1) [1]: 100%
% Remaining of Initial (n = 1) [2]: 43%
% Remaining of Initial (n = 1) [3]: 15%
% Remaining of Initial (n = 1) [4]: 10%
% Remaining of Initial (n = 1) [5]: 5.5%
% Remaining of Initial (n = 1) [6]: 100%
% Remaining of Initial (n = 1) [7]: 44%
% Remaining of Initial (n = 1) [8]: 14%
% Remaining of Initial (n = 1) [9]: 6.1%
% Remaining of Initial (n = 1) [10]: 4.7%
% Remaining of Initial (n = 1) [11]: 100%
% Remaining of Initial (n = 1) [12]: 45%
% Remaining of Initial (n = 1) [13]: 24%
% Remaining of Initial (n = 1) [14]: 11%
% Remaining of Initial (n = 1) [15]: 7.2%
% Remaining of Initial (n = 1) (SIF + Elastase, 0 min, 1 μM): 100%
% Remaining of Initial (n = 1) (SIF + Elastase, 15 min, 1 μM): 49%
% Remaining of Initial (n = 1) (SIF + Elastase, 30 min, 1 μM): 22%
% Remaining of Initial (n = 1) (SIF + Elastase, 60 min, 1 μM): 10%
% Remaining of Initial (n = 1) (SIF + Elastase, 120 min, 1 μM): 6.3%
% Remaining of Initial (n = 1) (SIF + Pancreatin, 0 min, 1 μM): 100%
% Remaining of Initial (n = 1) (SIF + Pancreatin, 15 min, 1 μM): 35%
% Remaining of Initial (n = 1) (SIF + Pancreatin, 30 min, 1 μM): 34%
% Remaining of Initial (n = 1) (SIF + Pancreatin, 60 min, 1 μM): 20%
% Remaining of Initial (n = 1) (SIF + Pancreatin, 120 min, 1 μM): 13%
% Remaining of Initial (n = 1) (SIF + Trypsin, 0 min, 1 μM): 100%
% Remaining of Initial (n = 1) (SIF + Trypsin, 15 min, 1 μM): 67%
% Remaining of Initial (n = 1) (SIF + Trypsin, 30 min, 1 μM): 49%
% Remaining of Initial (n = 1) (SIF + Trypsin, 60 min, 1 μM): 22%
% Remaining of Initial (n = 1) (SIF + Trypsin, 120 min, 1 μM): 12%
half-life at 1 μM (simulated intestinal fluid with carboxypeptidase A, pH 6.8, SIF + Carboxypeptidase A, 1 μM, read-out: Half-life): 12 min
half-life at 1 μM (simulated intestinal fluid with carboxypeptidase B, pH 6.8, SIF + Carboxypeptidase B, 1 μM, read-out: Half-life): 12 min
half-life at 1 μM (simulated intestinal fluid with chymotrypsin, pH 6.8, SIF + Chymotrypsin, 1 μM, read-out: Half-life): 14 min
half-life at 1 μM (simulated intestinal fluid with elastase, pH 6.8, SIF + Elastase, 1 μM, read-out: Half-life): 15 min
half-life at 1 μM (simulated intestinal fluid with pancreatin, pH 6.8, SIF + Pancreatin, 1 μM, read-out: Half-life): 17 min
half-life at 1 μM (simulated intestinal fluid with trypsin, pH 6.8, SIF + Trypsin, 1 μM, read-out: Half-life): 29 min
